Consider three molecules from US20120122908A1, “Novel C-4 Substituted Retinoids” (University of Maryland, priority 2000, published 2012).

Like-named read-outs stand apart in the source and are kept apart here. Where only a bound is given, the exact number is not on record here.

Data set [1] is described as follows: Pharmacokinetic studies in mice (plasma levels by HPLC). Type of data set: in vivo. As for the experimental part: FIG. 18: Plasma Levels in Balb/c Mice Following Dose of 10 mg/kg body weight Given s/c.
Pharmacokinetic studies of VN/65-4 and VN/66-1 were measured in mice and were compared to VN/14-1 and VN/50A-1. Mice were dosed s.c. at 10 mg/kg using a vehicle, 45% β-cyclodextrin in water, and plasma levels were measured by HPLC. […] The results are summarized in Table 3 below and the profiles in FIG. 18.

Data set [2] addresses T1, CYP19 (aromatase) (Homo sapiens, UniProt P11511).
T1 sequence (P11511 1-503): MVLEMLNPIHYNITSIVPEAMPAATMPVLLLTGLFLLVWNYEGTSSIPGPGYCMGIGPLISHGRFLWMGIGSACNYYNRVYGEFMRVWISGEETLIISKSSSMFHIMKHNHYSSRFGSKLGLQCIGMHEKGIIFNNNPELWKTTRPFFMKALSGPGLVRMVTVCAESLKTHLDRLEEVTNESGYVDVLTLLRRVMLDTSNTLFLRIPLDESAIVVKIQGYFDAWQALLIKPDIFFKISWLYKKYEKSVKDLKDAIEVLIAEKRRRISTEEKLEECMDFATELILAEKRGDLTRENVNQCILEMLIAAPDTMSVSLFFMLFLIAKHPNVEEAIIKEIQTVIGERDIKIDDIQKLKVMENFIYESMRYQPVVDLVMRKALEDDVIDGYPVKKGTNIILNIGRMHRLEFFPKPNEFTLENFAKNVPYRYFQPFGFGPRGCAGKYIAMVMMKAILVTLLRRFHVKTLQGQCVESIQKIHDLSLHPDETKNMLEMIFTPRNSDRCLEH
The data set can be described thus: Selectivity: effect on CYP19 (aromatase). Type of data set: biochemical. The note with it: concentration as high as 5 μM. How it is done:
The selectivity of the compounds of the present invention towards ATRA-4-hydroxylase was tested by measuring the effect on the key enzymes in the biosynthesis of estradiol and dehydroepiandrosterone, CYP19 (aromatase) and CYP17 (17-lyase), respectively.

Data set [3] addresses T2, RARγ (Homo sapiens, UniProt P13631).
T2 construct: Recombinant full-length RAR proteins were expressed as S-Tag fusion proteins in BL21 E. coli cells; S-Tag; made in house; host or cells: E. coli BL21
T2 sequence (P13631 1-454): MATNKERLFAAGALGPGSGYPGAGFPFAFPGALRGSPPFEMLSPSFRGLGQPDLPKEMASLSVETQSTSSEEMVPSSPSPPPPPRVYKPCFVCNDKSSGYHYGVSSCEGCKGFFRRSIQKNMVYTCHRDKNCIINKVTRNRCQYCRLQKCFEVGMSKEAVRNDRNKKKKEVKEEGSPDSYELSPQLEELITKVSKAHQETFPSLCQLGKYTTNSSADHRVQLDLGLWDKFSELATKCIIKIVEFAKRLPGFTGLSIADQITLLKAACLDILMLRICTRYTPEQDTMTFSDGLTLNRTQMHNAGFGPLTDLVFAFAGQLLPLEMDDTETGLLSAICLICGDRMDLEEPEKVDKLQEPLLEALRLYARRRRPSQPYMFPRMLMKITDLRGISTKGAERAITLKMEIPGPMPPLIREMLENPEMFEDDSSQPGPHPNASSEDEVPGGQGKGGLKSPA
The data set can be described thus: Competitive [3H]ATRA binding to recombinant RARγ. Particulars: for binding to RARγ: concentrations up to 500 nM. The text has this:
Because the novel compounds are retinoid-related analogs, they bind to the retinoid receptors in vivo and thus have increased therapeutic potentials. Similar to ATRA, these novel compounds act as a ligand for the retinoic acid receptors (RARs, α, β, and γ) but not the retinoid X receptors (RXRs, α, β, and γ). […] (Nervi C, Grippo J F, Sherman M I, George M D, Jetten A M, Identification and characterization of nuclear retinoic acid-binding activity inhuman myeloblastic leukemia HL-60 cells, Proc Natl Acad Sci USA 86: 5854-5858, 1989) The dissociation constants for the inhibitors is determined by the well described charcoal absorption method (Yang N, Schule R, Mangelsdorf D J, Evans R M, Characterization of DNA binding and retinoic acid binding properties of retinoic acid receptor, Proc Natl Acad Sci USA 88: 3559-3663, 1991). Briefly, serial dilutions of the novel compounds (10^−11 to 10^−5 M) in dimethyl sulfoxide, 100 μL each is used. 12 mg of crude cytosolic extracts is prepared from pET15b (Novagen, Madison, Wis.)/hRAR-α, -β, and -γ prepared protein is used for each data point. All reactions are conducted in binding buffer (60 mM Na imidazole, 500 mM NaCl, 20 mM Tris, pH 7.9) for 14-16 hours at 4° C. in a final volume of 1 mL. Unbound [^3H]ATRA is removed by addition of 0.5 mL of equivalent-sized dextran-treated charcoal (final concentration 3% [wt/vol]) for 15 minutes at 4° C. […]
Since the RAMBAs are retinoic acid analogs, it is possible that some of the compounds may bind to retinoid receptors and function as either transcriptional agonists/antagonists or may display anti AP-1 activity (Chambon P, A decade of molecular biology of retinoic acid, FASEB J 10: 5899-5904, 19962. The ability of three RAMBAs, VN/14-1, VN/50A-1 and VN/66-1 to bind to the individual RAR receptors was thus evaluated in vitro. Recombinant full-length RAR proteins were expressed as S-Tag fusion proteins in BL21 E. coli cells used for competitive binding assays. Each competition-binding assay contained 1 nM [^3H] […]

[4] abbreviates: mice, 10 mg/kg s.c., average of two animals.

The term Cmax denotes the maximum level reached in the sampled fluid or tissue. In the case of `CC(C=CC1=C(C)C(n2ccnc2)CCC1(C)C)=CC=CC(C)=CC(=O)Nc1ccc(O)cc1` (racemic) [VN/66-1, (±)-4-(1H-imidazol-1-yl), N-(4′-hydroxyphenyl)retinamide], the Cmax in data set [1] (Balb/c, mouse, plasma, sc, mice, 10 mg/kg s.c., average of two animals, read-out: Cmax) was found to be 16000 ng/mL. The “inhibition of CYP19 (aromatase)” value in data set [2] was “barely inhibited”. Moreover, the “binding to RARγ” value in data set [3] is recorded as “did not bind”.

As to `CC(C=CC1=C(C)C(n2ccnc2)CCC1(C)C)=CC=CC(C)=CC(=O)n1ccnc1` (stereo not drawn) [VN/50A-1], in data set [1] (after administration to mice, FIG. 18), the “time to complete elimination from plasma” value is ≤ 3 h. The “inhibition of CYP19 (aromatase)” value in data set [2] is “barely inhibited”. The “binding to RARγ” value in data set [3] is listed as “did not bind”.

By Tmax is commonly meant the time from dosing to the highest level. As usually defined, the IC50 is the concentration needed to halve the response being measured. `CC1=C(/C=C/C(C)=C/C=C/C(C)=C/C(=O)O)C(C)(C)CCC1n1ccnc1` (racemic) [VN/14-1, (±)-4-(1H-imidazole-1-yl)retinoic acid]: in data set [1] (setting [4]), the AUC came out at 567.80 μ/ml min, the Cmax was found to be 5020 ng/mL, the time of peak concentration (Tmax) worked out at 30 min and the t1/2 is 68.4 min. The “inhibition of CYP19 (aromatase)” value in data set [2] is on record as “barely inhibited”. Besides, the IC50 in data set [3] (1 nM [3H]ATRA, competitor 1 nM to 500 nM) is ~16 nM.
